Among the test systems are MDA-MB-435; BT-549; Hs-578T; SN12C; Malme-3M; MOLT-4; 786-0; COLO 205; SF-539; M19-MEL; A498; HOP-62; SF-295; SNB-75; HT-29; NCI-H460; LOX IMVI; SK-MEL-5; HCT-116; NCI-H226.
Test in all cases: DTP human tumour cell line panel, 48 h

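Where inhibition never reached the appropriate level, the endpoint shown equals the highest concentration tested. Otherwise, values were interpolated linearly from a five-concentration, 48-hour dose response in 96-well plates. GI50 is the concentration that inhibits growth by half.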 The source made the active and inactive calls. Cut-off read from the data, not from the text of the source: active = GI50 up to about 1.1 µM and inactive = higher.

As for `C[N+](C)(C)CC1CCCC(C[N+](C)(C)C)C1=O` (stereo not given), the GI50 in the test with MDA-MB-435 was 1800 nM (inactive); in the test on BT-549, 1580 nM (inactive); with Hs-578T, 13000 nM (inactive); in the test with SN12C, 1190 nM (inactive); in the test on Malme-3M, 212 nM (active); with MOLT-4 it was 133 nM (active). Moreover, the GI50 in the test with 786-0 was 661 nM (active); with COLO 205 it was 374 nM (active); with SF-539 it was 4790 nM (inactive); in the test with M19-MEL it was 879 nM (active); in the test on A498 it was 9620 nM (inactive); in the test on HOP-62, 23300 nM (inactive). Further, the GI50 in the test on SF-295 was 29700 nM (inactive); in the test on SNB-75 it was 4700 nM (inactive); in the test on HT-29, 1300 nM (inactive); in the test on NCI-H460, 16300 nM (inactive); with LOX IMVI it was 1230 nM (inactive); with SK-MEL-5, 5160 nM (inactive). For the same compound, the GI50 with HCT-116 is 804 nM (active); in the test with NCI-H226 it was 15600 nM (inactive).

The GI50 is the concentration giving 50% growth inhibition.

The values above are taken from ChEMBL document CHEMBL1201862, “PubChem BioAssay data set” (2004).
